Measured values reported in publication PMC10659578, “Mechanism of stepwise electron transfer in six-transmembrane epithelial antigen of the prostate (STEAP) 1 and 2” (eLife, 2023).

Key:
[1] = target: T1, cytochrome b5 reductase (b5R) (Mus musculus, UniProt Q9DCN2); experiment: rapid-scan stopped-flow FAD reduction; assay type: biochemical; conditions: anaerobic, 1.5 μM b5R with 1.5 μM STEAP1 and 10 μM NADH
T1 construct: gene Cyb5r3
T1 sequence (Q9DCN2 24-301): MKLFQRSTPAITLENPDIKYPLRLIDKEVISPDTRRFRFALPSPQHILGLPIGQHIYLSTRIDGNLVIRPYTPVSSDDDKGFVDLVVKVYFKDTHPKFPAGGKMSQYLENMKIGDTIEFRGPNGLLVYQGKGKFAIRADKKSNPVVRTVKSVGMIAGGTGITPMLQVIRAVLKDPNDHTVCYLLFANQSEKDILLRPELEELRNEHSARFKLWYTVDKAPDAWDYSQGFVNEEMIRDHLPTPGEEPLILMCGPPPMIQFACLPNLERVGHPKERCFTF

STEAP2 = target: T2, STEAP2 (Homo sapiens, UniProt Q8NFT2); experiment: cryo-EM structure, […] Å; assay type: binding
T2 construct: full-length (490 residues), C-terminal His6-tag cleaved by TEV protease; High Five or Sf9 insect cells; LMNG or GDN; homotrimer
T2 sequence (Q8NFT2 1-490): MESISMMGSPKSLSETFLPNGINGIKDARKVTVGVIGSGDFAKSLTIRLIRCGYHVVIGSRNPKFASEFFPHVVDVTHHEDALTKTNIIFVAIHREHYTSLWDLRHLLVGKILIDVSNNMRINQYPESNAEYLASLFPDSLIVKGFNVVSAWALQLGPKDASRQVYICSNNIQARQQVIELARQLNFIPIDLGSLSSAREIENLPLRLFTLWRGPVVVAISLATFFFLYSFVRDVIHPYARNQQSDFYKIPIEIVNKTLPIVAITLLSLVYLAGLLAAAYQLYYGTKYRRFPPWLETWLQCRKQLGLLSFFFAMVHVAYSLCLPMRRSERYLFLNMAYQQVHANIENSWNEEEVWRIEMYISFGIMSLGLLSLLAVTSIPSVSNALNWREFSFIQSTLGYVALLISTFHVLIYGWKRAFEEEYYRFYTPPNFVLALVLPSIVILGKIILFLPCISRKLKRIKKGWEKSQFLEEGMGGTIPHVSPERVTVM

## NC(=O)C1=CN([C@@H]2O[C@H](COP(=O)(O)OP(=O)(O)OC[C@H]3O[C@@H](n4cnc5c(N)ncnc54)[C@H](O)[C@@H]3O)[C@@H](O)[C@H]2O)C=CC1 [NADH]
[1]
  rapid-scan stopped-flow FAD reduction: intermediate B is due to fast FAD reduction in b5R by NADH

## NC(=O)c1ccc[n+]([C@@H]2O[C@H](COP(=O)(O)OP(=O)(O)OC[C@H]3O[C@@H](n4cnc5c(N)ncnc54)[C@H](OP(=O)(O)O)[C@@H]3O)[C@@H](O)[C@H]2O)c1 [NADP^+]
STEAP2; complex with FAD and heme, OxRD site
  cryo-EM structure, 3.2 Å: Heme, FAD, and NADP^+ are unambiguously resolved in the density map

## Cc1cc2nc3c(=O)[nH]c(=O)nc-3n(C[C@H](O)[C@H](O)[C@H](O)COP(=O)(O)OP(=O)(O)OC[C@H]3O[C@@H](n4cnc5c(N)ncnc54)[C@H](O)[C@@H]3O)c2cc1C [FAD]
STEAP2; complex with NADP+ and heme, extended conformation, isoalloxazine ring in TMD, adenine stacks on Trp152 of OxRD
  cryo-EM structure, 3.2 Å: Heme, FAD, and NADP^+ are unambiguously resolved in the density map
